# Reference: patent US9440938B2, “Sulfonamide derivative having PGD2 receptor antagonistic activity” (SHIONOGI & CO., LTD., priority 2005, dated 2016)
# Where two headings read alike, the source gives them in different places.
# Legend:
# DP receptor [1] = molecular target: T1, DP receptor (Homo sapiens, UniProt Q13258); experiment: cAMP assay with washed platelet (DP inhibitory activity in vitro); type: cell-based; conditions: read-out: IC50 (50% DP-inhibitory concentration in the cAMP assay); washed human platelets, 100 nM PGD2, cAMP by HTRF
# T1 construct: endogenous in cells; host or cells: washed platelets from peripheral blood of a healthy volunteer
# T1 sequence (Q13258 1-359): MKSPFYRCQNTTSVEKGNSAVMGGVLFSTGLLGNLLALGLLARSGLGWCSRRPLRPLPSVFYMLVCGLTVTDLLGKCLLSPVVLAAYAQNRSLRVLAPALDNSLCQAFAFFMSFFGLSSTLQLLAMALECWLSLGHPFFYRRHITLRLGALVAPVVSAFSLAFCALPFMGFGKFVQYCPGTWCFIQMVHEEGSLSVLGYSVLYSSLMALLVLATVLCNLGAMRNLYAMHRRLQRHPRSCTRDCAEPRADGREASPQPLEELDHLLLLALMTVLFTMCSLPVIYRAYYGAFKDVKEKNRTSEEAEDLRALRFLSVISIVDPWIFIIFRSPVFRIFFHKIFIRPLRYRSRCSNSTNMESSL
# Method: 1) Preparation of Platelet and a Method of cAMP Assay
# 30 mL of peripheral blood was collected from a healthy volunteer using a syringe containing one ninth amount of 3.8% sodium citrate. After being centrifuged at 180 g for 10 minutes at room temperature, a supernatant was collected and used as Platelet Rich Plasma (PRP). The resulting PRP was washed with wash buffer and centrifuged three times (Washed Platelet: WP) and platelets were counted by a microcell counter. WP was added to a plate in amount of 1.5×10^8/assay and the plate was treated with 3-isobutyl-1-methylxanthin (IBMX; 0.5 mM) for 5 minutes. A reaction was initiated by adding 100 nM of PGD2 5 min after an addition of a test compound. The reaction was terminated with an addition of 1N hydrochloric acid after 2 minutes and the cells were destructed using 12% triton X-100. An amount of cAMP in the supernatant was assayed by Homogeneous Trangient Fluorescence (HTRF)
# DP receptor [2] = molecular target: T1, DP receptor; experiment: Receptor binding assay, [3H]-PGD2, platelet membrane; conditions: [3H]-PGD2, human platelet membrane
# Method: 2) Receptor Binding Assay
# A prepared WP was homogenated and a membrane fraction was collected with high-speed centrifugation. A compound of the present invention or a reference compound A (No. IC-73 in WO 2003/097598) was added to the plate and [^3H]-PGD2 was also added. A platelet membrane, a protein concentration is 2 mg/mL, was added and mixed in the plate, and placed on ice for 2 hours. The reaction solution was transferred to a low protein-adsorptive filter and washed with a wash solution eight times using a cell harvester. After the final washing, water was removed sufficiently, and scintillator was added. DP inhibitory activity was investigated by measuring [^3H] by using Micro Beta.
# OVA asthma model of rat = experiment: Test using OVA asthma model of rat (airway hyperresponsiveness, infiltration of inflammatory cells, mucus-secretion); type: in vivo, Brown Norway (BN) Rats; conditions: po, 72 h
# Method: Test Using OVA Asthma Model of Rat
# Brown Norway (BN) Rats were sensitized by i.p. administration of 0.1 mg/mL of ovalbumin (OVA) and 1 mg of aluminum hydroxide gel. A solution of 1% OVA was aerosolized by ultrasonic nebulizer (NE-U17) and the rats were subjected to inhalation exposure of the aerosol for 30 minutes in an exposing chamber 12, 19, 26 and 33 days after the sensitization. One hour before the 4th exposure of the antigen, compounds of the present invention were administered in a dose of 10 mg/kg p.o. once a day for three days consecutively. In a control group, 0.5% of methyl cellulose was administered in place of the compound of the present invention.
# Under pentobarbital anesthesia (80 mg/kg, i.p.), acetylcholine (3.9, 7.8, 15.6, 31.3, 62.5, 125, 250 and 500 μg/kg) was injected to jugular vein of the rats successively from a lower dose at intervals of 5 minutes three days after the fourth exposure to the antigen, and immediate contractile reaction of airways (an increase of insufflation pressure) was measured by a modified method of Konnzett & Ririssler. Inhibition rate of airway hyperresponsiveness against the control group was calculated based on area under the curve (AUC) obtained from concentration-response curve of acetylcholine.
# After the measurement of increased hyperresponsive airway was completed, bronchoalveoli of the rats were washed with 5 mL of saline three times. Total cell number in the washings was counted by a hemacytometer under light microscope, and inhibition rates of infiltration of inflammatory cells against the control group were calculated. Further, mucin in the airway lavage fluid was measured by ELISA method using jacalin, a mucin-binding lectin, and the inhibition rates of mucus-secretion against the control group were calculated.
SMILES,IC50 (DP receptor [1]) [nM],Ki (DP receptor [2]) [nM],other results
CC(C)Oc1ccc(S(=O)(=O)N2CCN(c3ccc(-c4nncs4)c(OCC(=O)O)c3)CC2)cc1 [II-88],230,1500,–
CC(C)Oc1ccc(S(=O)(=O)N2CCN(c3ccc(Cl)c(/C=C/C(=O)O)c3)CC2)cc1 [II-18],4900,–,–
CC(C)Oc1ccc(S(=O)(=O)N2CCN(c3ccc(-c4nnco4)c(OCC(=O)O)c3)CC2)cc1 [II-46],790,870,–
CC(C)Oc1ccc(S(=O)(=O)N2CCN(c3ccc(Cl)c(CC(=O)O)c3)CC2)cc1 [II-20],4300,–,–
CC(C)Oc1ccc(S(=O)(=O)N2CCC(Oc3ccc(Cl)cc3CCC(=O)O)CC2)cc1 [Compound I-10],2700,30000,–
CC(C)Oc1ccc(S(=O)(=O)N2CCN(c3cc(OCC(=O)O)ccc3Cl)CC2)cc1 [II-69],1400,–,–
CC(C)Oc1ccc(S(=O)(=O)N2CCN(c3ccc(C(=O)Nc4ccn(C)n4)c(OCC(=O)O)c3)CC2)cc1 [II-111],700,36000,–
CC(C)Oc1ccc(S(=O)(=O)N2CCN(c3cc(OCC(=O)O)cc(-c4ccccc4)c3)CC2)cc1 [II-57],1200,–,–
CC(C)Oc1ccc(S(=O)(=O)N2CCN(c3ccc(-c4ccco4)c(OCC(=O)O)c3)CC2)cc1 [II-65],140,16000,–
CC(C)Oc1ccc(S(=O)(=O)N2CCC(Oc3ccc(F)cc3CCC(=O)O)CC2)cc1 [Compound I-18],1600,–,–
CC(C)Oc1ccc(S(=O)(=O)N2CCN(c3ccc(-n4cccn4)c(OCC(=O)O)c3)CC2)cc1 [II-95],2400,4700,–
CC(C)Oc1ccc(S(=O)(=O)N2CCN(c3ccc(Br)c(OCC(=O)O)n3)CC2)cc1 [II-90],590,–,–
CC(=O)c1ccc(N2CCN(S(=O)(=O)c3ccc(OC(C)C)cc3)CC2)cc1OCC(=O)O [II-91],1300,–,–
CC(C)Oc1ccc(S(=O)(=O)N2CCN(c3ccc(C(=O)NCc4ccccn4)c(OCC(=O)O)c3)CC2)cc1 [II-100],2400,12800,–
CC(C)Oc1ccc(S(=O)(=O)N2CCN(c3ccc(Cl)c(OCC(=O)O)c3)CC2)cc1 [II-10],410,650,–
COc1cccc(OC2CCN(S(=O)(=O)c3ccc(OC(C)C)cc3)CC2)c1/C=C/C(=O)O [Compound I-8],2100,–,–
CC(C)Oc1ccc(S(=O)(=O)N2CCN(c3ccc(C(=O)Nc4nccs4)c(OCC(=O)O)c3)CC2)cc1 [II-108],130,13000,–
Cc1nnc(-c2ccc(N3CCN(S(=O)(=O)c4ccc(OC(C)C)cc4)CC3)cc2OCC(=O)O)o1 [II-61],2100,1400,–
CC(C)Oc1ccc(S(=O)(=O)N2CCN(c3ccc(C(=O)NC4CC4)c(OCC(=O)O)c3)CC2)cc1 [II-89],2100,20000,–
CC(C)Oc1ccc(S(=O)(=O)N2CCN(c3ccc(Cl)c(OCC(=O)O)c3)C(C)C2)cc1 (stereo not shown) [II-44],690,1600,–
Cc1ccc(N2CCN(S(=O)(=O)c3ccc(OC(C)C)cc3)CC2)cc1OCC(=O)O [II-8],4600,–,–
CC(C)Oc1ccc(S(=O)(=O)N2CCN(c3ccc(NC(=O)c4cccnc4)c(OCC(=O)O)c3)CC2)cc1 [II-48],4600,–,–
CC(C)Oc1ccc(S(=O)(=O)N2CCN(c3ccc(NC(=O)c4ccccn4)c(OCC(=O)O)c3)CC2)cc1 [II-47],3100,2200,–
CC(C)NC(=O)c1ccc(N2CCN(S(=O)(=O)c3ccc(OC(C)C)cc3)CC2)cc1OCC(=O)O [II-63],–,–,"inhibition in vivo at 10 mg/kg (OVA asthma model of rat; BN rats, 10 mg/kg p.o. once a day for three days, mucin in airway lavage fluid by ELISA against control group, read-out: inhibition rate (%) mucus-secretion): 79%; inhibition in vivo at 10 mg/kg (OVA asthma model of rat; BN rats, 10 mg/kg p.o. once a day for three days, total cell number in bronchoalveolar washings against control group, read-out: inhibition rate (%) infiltration of inflammatory cells): 59%; inhibition in vivo at 10 mg/kg (OVA asthma model of rat; read-out: inhibition rate (%) airway hyperresponsiveness): 41%"
CC(C)Oc1ccc(S(=O)(=O)N2CCN(c3ccc(-c4ncco4)c(OCC(=O)O)c3)CC2)cn1 [II-94],2000,1700,–

SMILES,IC50 (DP receptor [1]) [nM],Ki (DP receptor [2]) [nM],other results
CC(C)Oc1ccc(S(=O)(=O)N2CCN(c3ccc([N+](=O)[O-])c(NCC(=O)O)c3)CC2)cc1 [II-135],130,490,–
CC(C)Oc1ccc(S(=O)(=O)N2CCN(c3ccc(C(N)=O)c(OCC(=O)O)c3)CC2)cc1 [II-81],1800,2600,–
Cc1nnc(-c2ccc(N3CCN(S(=O)(=O)c4ccc(OC(C)C)cc4)CC3)cc2OCC(=O)O)s1 [II-75],580,580,–
COCC#Cc1cc(OCC(=O)O)cc(N2CCN(S(=O)(=O)c3ccc(OC(C)C)cc3)CC2)c1 [II-37],1500,–,–
CC(C)Oc1ccc(S(=O)(=O)N2CCC(c3ccc(Cl)c(OCC(=O)O)c3)CC2)cc1 [Compound I-31],160,3600,–
CC(C)OC(=O)Nc1ccc(N2CCN(S(=O)(=O)c3ccc(OC(C)C)cc3)CC2)cc1OCC(=O)O [II-67],1700,–,–
CC(C)Oc1ccc(S(=O)(=O)N2CCN(c3cccc(OCC(=O)O)n3)CC2)cc1 [II-11],2300,–,–
CC(C)Oc1ccc(S(=O)(=O)N2CCN(c3ccc(NC(=O)c4ccccc4)c(OCC(=O)O)c3)CC2)cc1 [II-28],2500,3800,–
CC(C)Oc1ccc(S(=O)(=O)N2CCN(c3ccc(Cl)c(OCC(=O)O)c3)CC2)cc1F [II-31],810,3700,–
CC(C)Oc1ccc(S(=O)(=O)N2CCN(c3ccc(C(=O)Nc4nncs4)c(OCC(=O)O)c3)CC2)cc1 [II-110],360,9800,–
CC(C)NC(=O)Nc1ccc(N2CCN(S(=O)(=O)c3ccc(OC(C)C)cc3)CC2)cc1OCC(=O)O [II-68],17000,–,–
CC(C)Oc1ccc(S(=O)(=O)N2CCN(c3ccc(NC(=O)c4ccno4)c(OCC(=O)O)c3)CC2)cc1 [II-58],3500,–,–
CC(C)Oc1ccc(S(=O)(=O)N2CCC(Oc3ccccc3CCC(=O)O)CC2)cc1 [Compound I-11],3000,–,–
CNC(=O)c1ccc(N2CCN(S(=O)(=O)c3ccc(OC(C)C)cc3)CC2)cc1OCC(=O)O [II-82],1100,5000,–
CC(C)Oc1ccc(S(=O)(=O)N2CCN(c3cc(F)c(F)c(OCC(=O)O)c3)CC2)cn1 [II-55],3000,–,–
CC(C)Oc1ccc(S(=O)(=O)N2CCN(c3ccc(OCc4ccccc4)c(OCC(=O)O)c3)CC2)cc1 [II-71],4100,–,–
CC(C)Oc1ccc(S(=O)(=O)N2CC=C(c3ccc(Cl)c(OCC(=O)O)c3)CC2)cc1 [Compound I-30],510,–,–
CC(C)Oc1ccc(S(=O)(=O)N2CCN(c3ccc(Oc4ccccc4)c(OCC(=O)O)c3)CC2)cc1 [II-79],2300,–,–
COC(=O)Nc1ccc(N2CCN(S(=O)(=O)c3ccc(OC(C)C)cc3)CC2)cc1OCC(=O)O [II-59],4300,–,–
CC(C)Oc1ccc(S(=O)(=O)N2CCN(c3ccc(OCc4ccoc4)c(OCC(=O)O)c3)CC2)cc1 [II-77],3600,–,–
CC(C)Oc1ccc(S(=O)(=O)N2CCN(c3ccc(-c4ccccc4)c(OCC(=O)O)c3)CC2)cc1 [II-53],2300,–,–
Cc1cc(OCC(=O)O)cc(N2CCN(S(=O)(=O)c3ccc(OC(C)C)cc3)CC2)c1 [II-41],3500,–,–
COc1cccc(OC2CCN(S(=O)(=O)c3ccc(OC(C)C)cc3)CC2)c1CCC(=O)O [Compound I-12],4200,–,–
CC(C)Oc1ccc(S(=O)(=O)N2CCC(Oc3ccccc3/C=C/C(=O)O)CC2)cc1 [Compound I-7],2400,–,–
